Like-named read-outs stand apart in the source and are kept apart here.
How the values were obtained:
dopamine D2/D3 = assay: D2/D3 RO by dynamic 11C raclopride PET after oral LB-102 in healthy volunteers (Example 1); assay type: in vivo, human
[1] = PK analysis of LB-102 in healthy human subjects, single and multiple ascending doses (Example 2); assay type: in vivo; settings: for half-life / Cmax / Tmax: both sexes, plasma, oral
Experimental: Healthy females and males between 18 and 55 years of age with BMI≥18 and ≤30 kg/m2 were enrolled in the study. Exclusion criteria included: history or presence of psychiatric disorder, drug or alcohol abuse, history of QT prolongation or dysrhythmia, fasting blood glucose level of 126 mg/dL, or a known allergy to the drug or its metabolites. The study was planned as a two part study. Part A was comprised of 5 single ascending dose groups, each of 8 subjects. Part B was comprised of 3 multiple ascending doses, two doses a day for 7 days ([…] doses in total) each of 8 subjects. All subjects were randomized 3:1 drug:placebo. The primary endpoint of the study was safety, with pharmacokinetics as a secondary objective.
Plasma concentrations of LB-102 were obtained as a function of time for single oral administration of LB-102 to human subjects at 10 mg (larger cross), 50 mg (triangle), 100 mg (square), 150 mg (smaller cross), and 200 mg (diamond), respectively, are further provided in FIG. 3.

[2] = Demethylation of LB-102 to amisulpride in preclinical animal models; assay type: in vivo
Dopamine (e.g., D2/D3) = assay: Dopamine RO % by raclopride PET after LB-102, various dosage regimens (Example 3); assay type: in vivo, human; settings: group mean
[3] = 50 mg LB102 oral, 2.5 h after admin
[4] = 50 mg LB102 oral, 7.5 h after admin
[5] = 50 mg LB102 oral, 23.5 h after admin
[6] = 100 mg LB102 oral, 2.5 h after admin
[7] = 100 mg LB102 oral, 7.5 h after admin
[8] = 100 mg LB102 oral, 23.5 h after admin

AUC0-inf D1 ([1]; 50 mg every 12 hours, D1, mean (SD)): 1012.6 (100.4) ngh/mL
AUC0-inf D7 ([1]; 50 mg every 12 hours, D7, mean (SD)): 2489.1 (312.4) ngh/mL
CL/F ([1]; 50 mg every 12 hours, mean (SD)): 33.8 (3.1) L/h
AUC relative to AUC of 50 mg amisulpride ([1]; 50 mg oral LB-102 vs published 50 mg amisulpride): about 2.5 times
AUC0-inf D1 ([1]; 75 mg every 12 hours, D1, mean (SD)): 1777.9 (309.0) ngh/mL
CL/F ([1]; 75 mg every 12 hours, mean (SD)): 34.9 (8.8) L/h
AUC0-inf D1 ([1]; 100 mg every 12 hours, D1, mean (SD)): 2152.9 (439.9) ngh/mL
accumulation across dose levels ([1]; MAD portion of the study): slight to moderate accumulation
half-life ([1]; human, 10 mg, single administration 10 mg, mean (SD), read-out: T1/2 (converted)): 13.7 h
Cmax ([1]; human, 10 mg, single administration 10 mg, mean, read-out: Cmax): 24.1 ng/mL
Tmax ([1]; human, 10 mg, single administration 10 mg, read-out: Tmax): 3 h
Cmax ([1]; human, 50 mg, 50 mg every 12 hours, D1, mean (SD), read-out: Cmax D1): 126 ng/mL
half-life ([1]; human, 50 mg, 50 mg every 12 hours, D1, mean (SD), read-out: T1/2 D1 (converted)): 4.2 h
Tmax ([1]; human, 50 mg, 50 mg every 12 hours, D1, read-out: Tmax D1): 2.5 h
Cmax ([1]; human, 50 mg, 50 mg every 12 hours, D7, mean (SD), read-out: Cmax D7): 224 ng/mL
half-life ([1]; human, 50 mg, 50 mg every 12 hours, D7, mean (SD), read-out: T1/2 D7 (converted)): 14.3 h
Tmax ([1]; human, 50 mg, 50 mg every 12 hours, D7, read-out: Tmax D7): 2.5 h
half-life ([1]; human, 50 mg, single administration 50 mg, mean (SD), read-out: T1/2 (converted)): 11.9 h
Cmax ([1]; human, 50 mg, single administration 50 mg, mean, read-out: Cmax): 176 ng/mL
Tmax ([1]; human, 50 mg, single administration 50 mg, read-out: Tmax): 3 h
Cmax ([1]; human, 75 mg, 75 mg every 12 hours, D1, mean (SD), read-out: Cmax D1): 267 ng/mL
half-life ([1]; human, 75 mg, 75 mg every 12 hours, D1, mean (SD), read-out: T1/2 D1 (converted)): 4 h
Tmax ([1]; human, 75 mg, 75 mg every 12 hours, D1, read-out: Tmax D1): 3 h
Cmax ([1]; human, 75 mg, 75 mg every 12 hours, D7, mean (SD), read-out: Cmax D7): 309 ng/mL
Tmax ([1]; human, 75 mg, 75 mg every 12 hours, D7, read-out: Tmax D7): 2 h
Cmax ([1]; human, 100 mg, 100 mg every 12 hours, D1, mean (SD), read-out: Cmax D1): 325 ng/mL
half-life ([1]; human, 100 mg, 100 mg every 12 hours, D1, mean (SD), read-out: T1/2 D1 (converted)): 4.12 h
Tmax ([1]; human, 100 mg, 100 mg every 12 hours, D1, read-out: Tmax D1): 2.5 h
half-life ([1]; human, 100 mg, single administration 100 mg, mean (SD), read-out: T1/2 (converted)): 14.1 h
Cmax ([1]; human, 100 mg, single administration 100 mg, mean, read-out: Cmax): 348 ng/mL
Tmax ([1]; human, 100 mg, single administration 100 mg, read-out: Tmax): 3 h
half-life ([1]; human, 150 mg, single administration 150 mg, mean (SD), read-out: T1/2 (converted)): 12 h
Cmax ([1]; human, 150 mg, single administration 150 mg, mean, read-out: Cmax): 596 ng/mL
Tmax ([1]; human, 150 mg, single administration 150 mg, read-out: Tmax): 3 h
half-life ([1]; human, 200 mg, single administration 200 mg, mean (SD), read-out: T1/2 (converted)): 13 h
Cmax ([1]; human, 200 mg, single administration 200 mg, mean, read-out: Cmax): 976 ng/mL
Tmax ([1]; human, 200 mg, single administration 200 mg, read-out: Tmax): 3 h
metabolism of LB-102 to amisulpride ([1]; human (FIG. 2)): < 3%
increase of exposure with dose ([1]; oral dosing, human): slightly greater than dose proportional
absorption ([1]; orally dosed, human): rapidly absorbed
AUC0-inf ([1]; single administration 10 mg, mean): 252.6 ngh/mL
CL/F ([1]; single administration 10 mg, mean (SD)): 42.4 (12.6) L/h
AUC0-inf ([1]; single administration 50 mg, mean): 1595.9 ngh/mL
CL/F ([1]; single administration 50 mg, mean (SD)): 31.7 (3.8) L/h
AUC0-inf ([1]; single administration 100 mg, mean): 2809.8 ngh/mL
CL/F ([1]; single administration 100 mg, mean (SD)): 36.6 (6.9) L/h
AUC0-inf ([1]; single administration 150 mg, mean): 4636.6 ngh/mL
CL/F ([1]; single administration 150 mg, mean (SD)): 33.1 (5.3) L/h
AUC0-inf ([1]; single administration 200 mg, mean): 7002.1 ngh/mL
CL/F ([1]; single administration 200 mg, mean (SD)): 28.9 (3.4) L/h
AUC ([1]; single oral administration of 50 mg to human subjects (FIG. 4B)): 1,595 ngh/mL
demethylated to amisulpride [2]: up to 50%
SMILES: CCN1CCCC1CNC(=O)c1cc(S(=O)(=O)CC)c(NC)cc1OC (stereo not drawn) [LB-102]
Caudate % RO (dopamine D2/D3; [3]): 26%
Putamen % RO (dopamine D2/D3; [3]): 22%
Caudate % RO (dopamine D2/D3; [4]): 43%
Putamen % RO (dopamine D2/D3; [4]): 36%
Caudate % RO (dopamine D2/D3; [5]): 50%
Putamen % RO (dopamine D2/D3; [5]): 39%
Caudate % RO (dopamine D2/D3; [6]): 48%
Putamen % RO (dopamine D2/D3; [6]): 42%
Caudate % RO (dopamine D2/D3; [7]): 77%
Putamen % RO (dopamine D2/D3; [7]): 71%
Caudate % RO (dopamine D2/D3; [8]): 74%
Putamen % RO (dopamine D2/D3; [8]): 67%
dopamine D2/D3 RO in caudate/putamen (dopamine D2/D3; single oral dose of 50 mg, human subjects (FIG. 1A)): about 50%
dopamine D2/D3 RO in caudate/putamen (dopamine D2/D3; single oral dose of 100 mg, human subjects (FIG. 1B)): ~75%
trough concentrations ([1]; MAD portion of the study): plateaued prior to the morning dose on Day 4
Dopamine RO % (Caudate + Putamen) (Dopamine (e.g., D2/D3); 50 mg SS (once a day for 4 days), 8 h after Day 4 administration): 72%
Dopamine RO % (Caudate + Putamen) (Dopamine (e.g., D2/D3); 75 mg QD, 48 h after LB-102 administration): 37%

Source: patent US20240115547A1, “PSYCHOTROPIC AGENTS AND USES THEREOF” (LB PHARMACEUTICALS INC., priority 2021, published 2024)
